Experiments:
p140^prototrk [1] = assay: NGF-dependent trk tyrosine phosphorylation in LA-N-5 neuroblastoma cells; assay type: cell-based, human; settings: LA-N-5 cells, 100 ng/ml NGF for 5 min
Text: (§1) FIGS. 4A-B show NGF-dependent tyrosine phosphorylation of gp140trk in the human neuroblastoma cell lines LA-N-5, SY5Y, and dorsal root ganglia from mouse embryos. FIG. 4A, gp140trk was immunoprecipitated from untreated (-) or NGF treated (+) LA-N-5 cells (K. H. Sonnenfeld and D. N. Ishii, J. Neurosci. Res. 8:375-391 (1982)), SY5Y cells (K. H. Sonnenfeld and D. N. Ishii, (1982)), NR18 cells (M. A. Bothwell et al., Cell 21:857-866 (1980)), or PC12 cells. Immunoprecipitates were probed with P-tyr antibodies. The differences in trk protein mobilities are due to differences in glycosylation. FIG. 4B, Tyrosine phosphorylation of gp140trk in DRGs from 13.5 day or 14.5 day embryonic mice. DRGs were maintained in 100 ng/ml NGF for ≥10 min prior to lysis and immunoprecipitation with trk antibodies. trk immunoprecipitates were probed with P-tyr antibody. Tyrosine phosphorylated gp140trk from NGF-treated (+) PC12 cells or untreated (-) PC12 cells is shown for comparison. Samples were normalized for cell protein. Molecular weight markers in kDa are indicated.
(§2) Cell lines were treated with 100 ng/ml NGF for 5 min and gp140trk immunoprecipitated as in FIG. 1. DRGs were prepared by dissection for 13.5 or 14.5 day mouse embryos. […] Lysates were immunoprecipitated with trk antibody and the trk proteins were analyzed by antiphosphotyrosine immunoblots. […]

p140^prototrk [2] = assay: NGF-dependent trk tyrosine phosphorylation in SY5Y cells; assay type: cell-based, human; settings: 100 ng/ml NGF for 5 min
Text: as §1, §2

trk transcripts = assay: Northern transfer analysis of trk transcripts in PC12 cells with or without NGF; assay type: cell-based, rat; settings: 50 ng/ml NGF, 48 hr
Procedure: RNA preparation and Northern transfer analysis was performed as described (Martin-Zanca et al., (1990a)). Cells were treated with 50 ng/ml NGF(+) (Boehringer Mannheim Biochemicals) and were harvested 48 hr later after differentiation had occurred. 20 μg of total RNA was loaded per lane, and the filter was hybridized with a trk (Martin-Zanca et al., (1990)) or trkB (Klein et al., (1990a)) specific probe.
The trk gene is a member of a gene family of TK receptors that includes the related gene trkb. To determine if trk is transcribed in PC12 cells, the expression of trk transcripts was assayed by Northern transfer analysis with a full-length trk cDNA probe (R. Klein et al., (1990a)). PC12 cells contained trk transcripts (FIG. 7). The level of trk transcripts was not affected by the addition of NGF. To determine whether additional trk-related genes were transcribed in PC12 cells, mRNA was hybridized at low stringency with the highly conserved trk TK domain. trk transcripts have been found in LA-N-5 cells, Sy5y cells and DRG from 13.5 day or 14.5 day embryonic mice.

gp140^prototrk = molecular target: T1, gp140^prototrk (Rattus norvegicus, UniProt P35739); settings: PC12 cells, after NGF administration (Kaplan et al., 1991); cited from earlier work
T1 construct: tyrosine phosphorylation in response to NGF addition to PC12 cells; endogenous in cells; host or cells: PC12 cells

p140^prototrk [3] = molecular target: p140^prototrk (Rattus norvegicus, UniProt P35739); assay: NGF-dependent trk tyrosine phosphorylation in NR18 cells (PC12 derivative); assay type: cell-based; design: the phosphorylation state of the trk receptor on the NR18 cell line; endogenous in cells; host or cells: NR18 cells; settings: 100 ng/ml NGF for 5 min
Text: as §1, §2

p140^prototrk (Rattus norvegicus, UniProt P35739), sequence (P35739 33-799): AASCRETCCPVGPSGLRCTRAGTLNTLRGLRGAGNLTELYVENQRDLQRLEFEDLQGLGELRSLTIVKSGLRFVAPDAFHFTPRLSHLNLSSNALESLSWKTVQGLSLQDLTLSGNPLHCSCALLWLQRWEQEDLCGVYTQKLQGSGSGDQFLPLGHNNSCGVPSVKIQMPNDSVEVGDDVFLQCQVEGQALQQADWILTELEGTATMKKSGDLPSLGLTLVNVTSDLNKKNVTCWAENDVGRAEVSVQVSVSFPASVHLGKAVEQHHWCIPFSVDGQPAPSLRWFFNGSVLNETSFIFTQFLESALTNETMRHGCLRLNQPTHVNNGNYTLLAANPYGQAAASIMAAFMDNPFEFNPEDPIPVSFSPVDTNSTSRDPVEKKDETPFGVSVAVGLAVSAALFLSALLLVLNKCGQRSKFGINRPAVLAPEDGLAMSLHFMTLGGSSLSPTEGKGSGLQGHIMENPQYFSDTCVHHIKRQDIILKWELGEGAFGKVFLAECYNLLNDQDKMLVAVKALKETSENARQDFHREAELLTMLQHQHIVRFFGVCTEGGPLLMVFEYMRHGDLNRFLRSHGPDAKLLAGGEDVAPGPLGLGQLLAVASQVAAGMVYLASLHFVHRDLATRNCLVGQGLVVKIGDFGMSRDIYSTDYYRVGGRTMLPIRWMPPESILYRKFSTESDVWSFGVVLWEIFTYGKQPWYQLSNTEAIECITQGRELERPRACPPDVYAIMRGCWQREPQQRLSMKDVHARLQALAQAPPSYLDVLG
T1 sequence (P35739 33-799): as above

In the case of “NGF: neurotrophic polypeptide factor, nerve growth factor; ligand of trk proto-oncogene receptor”, the “p140^prototrk tyrosine phosphorylation” value (p140^prototrk [1]) is reported as “enhanced”, the “p140^prototrk tyrosine phosphorylation” value (p140^prototrk [2]) is reported as “enhanced” and the “level of trk transcripts” value (trk transcripts) is reported as “not affected”. For the same substance, the “time to appearance of trk tyrosine phosphorylation” value (gp140^prototrk) was 1 min and the “p140^prototrk phosphorylation in response to NGF” value (p140^prototrk [3]) was “no phosphorylation”.
